Results on 5 compounds are retold here after publication PMC8985176, “Structural transformation of methasterone with Cunninghamella blakesleeana and Macrophomina phaseolina” (RSC Advances, 2022).

The subject of series [1] is HeLa (cervical cancer) cell line. Kind of series: Cytotoxicity MTT assay, HeLa cells. The series is classed as cell-based. The conditions noted are these: Homo sapiens, 48 h. The protocol:
(§1) MCF-7 (breast cancer), NCI-H460 (lung cancer), HeLa (cervical cancer) cell lines, and BJ (normal human fibroblast) cell lines were collected from cell culture biobank (PCMD, ICCBS). DMEM medium was used for MCF-7, HeLa, and BJ, and RPMI (ATCC modified medium) was used for NCI-H460. The media was supplemented with 10% FBS, 100 IU mL^−1 of penicillin, and 100 μg mL^−1 of streptomycin, and kept at 37 °C in a 5% CO2 incubator. The inhibition was investigated by MTT assay. Briefly, 100 μL per well of cell solutions (10 × 10^4 cells per mL MCF-7 cells, 5 × 10^4 cells per mL NCI-H460 cells, 6 × 10^4 cells per mL HeLa cells, or 5 × 10^4 cells per mL BJ cells), were added into 96-well plate and incubated for 24 h at 37 °C, before treatment with 6.25–50 μM of compounds or positive control doxorubicin for 48 h. After this, 20 μL of MTT (5 mg mL^−1) was added to each well and then incubated for 4 h at 37 °C. Then 100 μL DMSO was added to each well to dissolve the purple formazan crystal. The absorbance was analyzed at 570 nm (MCF-7, NCI-H460, and HeLa) or 550 nm (BJ) using an ELISA plate reader.
In general terms: Tetrazolium dyes change colour on reduction, which living cells bring about.

Series [2] deals with MCF-7 (breast cancer) cell line. As to the kind of experiment: Cytotoxicity MTT assay, MCF-7 cells. The series is classed as cell-based. Conditions: Homo sapiens, MCF7, 48 h. The protocol: as §1
In series [3] the test system is NCI-H460 (lung cancer) cell line. As to the kind of experiment: Cytotoxicity MTT assay, NCI-H460 cells. The series is classed as cell-based. Conditions: Homo sapiens, 48 h. The protocol:
as §1

For series [4], the system named is nitric oxide (NO) production. As to the kind of experiment: Nitric oxide (NO) production inhibitory assay (Griess method, LPS-stimulated J774.2 macrophages). The series is classed as cell-based, mouse. The protocol: The J774.2 cell line (mouse macrophage) was obtained from (European Collection of Cell Cultures, Salisbury, UK). It was cultivated in […] flasks (IWAKI, Asahi Techno Glass, Shizuoka, Japan), containing DMEM (Sigma-Aldrich, Steinheim, Germany) and fetal bovine serum (FBS) (10%) (GIBCO, New York, NY, USA) and 1% streptomycin/penicillin, and were incubated in 5% CO2 at 37 °C. Fully-grown cells (10^6 cells per mL) were transferred into the 96-well plate, and NO synthase was added into the wells by E. coli (30 μg mL^−1) lipopolysaccharide (LPS) (DIFCO Laboratories, Detroit, MI, USA) for NO production. Samples were tested with different concentrations (1, 10, and 25 μg mL^−1), and placed in CO2 (5%) at 37 °C. N^G monomethyl L-arginine acetate (LNMMA) was used as a standard NO inhibitor. Griess method was used to analyze the accumulation of nitrite in the cells.[35] IC50 values were calculated by a Microsoft Excel-based formula.
(Nitrite, measured by Griess reagent, commonly stands in for NO production.)

A short description of series [5]: Cytotoxicity MTT assay, BJ cells. The series is classed as cell-based. Conditions: human, BJ normal human fibroblast cells, μM converted to μg mL^−1, read-out: IC50 cytotoxicity against human normal cell line (BJ). The protocol: as §1
[6] abbreviates: J774.2 mouse macrophages, LPS 30 μg mL^−1, Griess method, read-out: IC50 against nitric oxide (NO) production.

Each structure is given as a SMILES string. In brackets after ≈: the same amount, converted by molar mass. Like-named read-outs stand apart in the source and are kept apart here.

In general, inhibition refers to the percentage by which the read-out fell short of the control. Read a high inhibition as a response far below the control. Usually IC50 stands for the concentration at which inhibition is half-maximal. The melting point is the temperature, or range, at which the solid turns liquid.

As to `CC1CC2(C)C(CCC3C2CCC2(C)C3CCC2(C)O)CC1=O` (centres unmarked) [Compound 1, methasterone], the inhibition at 50 µM in series [1], in series [2] and in series [3] was below 50% throughout. Moreover, the IC50 in series [4] (setting [6]) was found to be 23.9 ± 0.2 µg/mL (≈ 75 µM). Moreover, the IC50 at 48 h in series [5] stood at 8.01 ± 0.52 µg/mL (≈ 25.1 µM).

As for `C[C@@H]1C[C@@]2(C)[C@H](CC1=O)[C@H](O)[C@H](O)[C@@H]1[C@@H]2CC[C@@]2(C)[C@H]1CC[C@]2(C)O` [Compound 2, 6β,7β,17β-Trihydroxy-2α,17α-dimethyl-5α-androstane-3-one], the melting point lay within 139 to 141 °C. For the same compound, in series [1], the inhibition at 50 µM is below 50%. In series [2], this compound had an inhibition at 50 µM below 50%. The inhibition at 50 µM in series [3] was below 50%. For the same compound, in series [4] (setting [6]), the IC50 is 38.1 ± 0.5 µg/mL (≈ 109 µM).

`CC1CC2(C)C(CC1=O)C(O)CC1C3CCC(C)(O)C3(C)CCC12O` (stereo not drawn) [Compound 7, 6β,9α,17β-Trihydroxy-2α,17α-dimethyl-5α-androstane-3-one] had a melting point of 139 to 141 °C. The inhibition at 50 µM in series [1] was below 50%. For the same compound, in series [2], the inhibition at 50 µM was below 50%. In series [3], this compound came in with an inhibition at 50 µM below 50%. Moreover, the IC50 in series [4] (Mus musculus, J774.2, read-out: IC50 against nitric oxide (NO) production) was determined as 40.2 ± 3.3 µg/mL (≈ 115 µM).

As for `CC(=O)O.CNC(=N)NCCC[C@H](N)C(=O)O` [LNMMA, N^G monomethyl L-arginine acetate, reference compound], the “IC50 against nitric oxide (NO) production” value in series [4] (J774.2 mouse macrophages, LPS 30 μg mL^−1, Griess method) was found to be 24.2 ± 0.8 µg/mL.

For `COc1cccc2c1C(=O)c1c(O)c3c(c(O)c1C2=O)C[C@@](O)(C(=O)CO)C[C@@H]3O[C@H]1C[C@H](N)[C@H](O)[C@H](C)O1` [doxorubicin, reference compound], the IC50 in series [3] (read-out: IC50 against NCI-H460) was found to be 0.76 ± 0.05 µg/mL (≈ 1.4 µM).
